Laboratory results as given in PubChem BioAssay AID2740 (NMMLSC, 2010).
Several values for one entry are separate records, joined by “and”; a condition that tells them apart may be missing. Identical values can stand only once. Activity calls are given as the source filed them.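 Rule for the calls: active = compounds whose fitted half-maximal concentration for changing the GFP signal is at or below a set limit; inactive = the rest.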

Test system: not listed separately
Experiment: TOR pathway RPL19A-GFP modulators, concentration series – cell-based, S. cerevisiae, flow cytometry, MLPCN hits, dose response (AID 2740);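 for GFP fluorescence, lower = active: background is signal of the same compound in parental non-GFP s288c yeast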
Conditions: S. cerevisiae RPL19A-GFP strain, flow cytometry fluorescence, 3 h; at 33 µM (top of the series)

SMILES	GFP fluorescence, lower = active (kMESF (background-subtracted))
O=C(OCC(=O)N1CCN(C(=O)c2ccco2)CC1)c1cc(-c2ccc(F)cc2)nc2ccccc12	32.3 (inactive)

Test system: S. cerevisiae RPL19A-GFP strain, flow cytometry fluorescence, 3 h
Experiment: as above
Conditions: not given

SMILES	EC50
CCOC(=O)/C(=C\c1cn(C)c2ccccc12)[N+](=O)[O-]	4.95 µM
CCOC(=O)C(C(=O)OCC)C(C(=O)OCC)N1CCOCC1 (stereo not drawn)	14.2 µM
COc1cc(/C=C/[N+](=O)[O-])ccc1O	32.1 µM
C#CCOCCOCCOCCNc1nc(N2CCN(C(=O)CCCCCCCCCCNC(=O)[C@H](CCCCN)n3cc(C)nn3)CC2)nc(N2CCN(C(=O)CCCCCCCCCCNC(=O)[C@H](CCCN=C(N)N)n3cc(C[C@@H](C)CC)nn3)CC2)n1	10.7 µM
CC1=NNC(=O)/C1=C\c1cn(-c2ccccc2)nc1-c1cccs1	3.14 µM
CCN1/C(=C/C(C)=C/c2sc3ccccc3[n+]2CC)Sc2ccccc21	11.3 µM
O=C1C=CC(=O)N1c1cccc(-c2ccccc2)c1	2.7 µM
O=C(/C=C/c1ccccn1)c1ccc(Br)cc1O	26.8 µM
O=C(/C=C/c1cccc([N+](=O)[O-])c1)c1ccc([N+](=O)[O-])o1	3.5 µM
CNC(CC(=O)c1ccc([N+](=O)[O-])cc1)C(Cl)(Cl)Cl (stereo not drawn)	6.58 µM
CC(C)(C)c1ccc(NC(=O)COC(=O)c2ccc([N+](=O)[O-])s2)cc1	9.71 µM
O=C1Oc2ccccc2C(=O)/C1=C/c1ccccc1O	11 µM
Cn1ncc2c(O/N=C(\N)c3ccc(C(C)(C)C)cc3)ncnc21	13 µM
Cc1ccc(/C=C2\C(=O)NC(=S)N(c3ccccc3F)C2=O)s1	1.36 µM
Cc1ccc(S(=O)(=O)ON2C(=O)c3ccccc3C2=O)c(C)c1	14 µM
C#CCOCCOCCOCCNc1nc(N2CCN(C(=O)CCCCCCCCCCNC(=O)[C@H](CCCCN)n3cc(CCO)nn3)CC2)nc(N2CCN(C(=O)CCCCCCCCCCNC(=O)[C@H](CCCN=C(N)N)n3cc(C[C@@H](C)CC)nn3)CC2)n1	10 µM
O=C1C=CC(=O)N1c1ccc(Sc2ccc([N+](=O)[O-])cc2)cc1	10.2 µM
O=C(OCC(=O)N1CCN(C(=O)c2ccco2)CC1)c1cc(-c2cccc(Br)c2)nc2ccccc12	3.18 µM
CC(Oc1ccc(Cl)cc1)C(=O)NNC(=S)NC(=O)c1ccco1 (stereo not drawn)	11 µM
CCOc1ccc(N/N=C(/C#N)C(N)=O)cc1	4.55 µM
Cc1cccc(C)c1NC(=O)C(Cl)C(=O)c1ccccc1 (stereo not drawn)	1.9 µM
O=C(Nc1ccc(Cl)cc1Cl)c1cccc(N2C(=O)C=CC2=O)c1	9.64 µM

SMILES	EC50
O=[N+]([O-])c1cc(Cl)c2cccnc2c1O	13 µM
O=C(OCC(=O)N1CCN(C(=O)c2ccco2)CC1)c1cc(-c2ccccc2)nc2ccccc12	6.98 µM and 3.89 µM
Cn1ncc(S(=O)(=O)Cc2ccccc2)c(Cl)c1=O	14.9 µM
Cc1ccc(/C=C/C(=O)c2ccccc(=O)c2O)c(C)c1	11.3 µM
Cc1nn2c(-c3ccncc3)nnc2c2ccccc12	3.29 µM
O=C(C#Cc1ccccc1)c1cccc([N+](=O)[O-])c1	7.47 µM
CNc1nc(N)c([N+](=O)[O-])c(Nc2cccc(F)c2)n1	7.46 µM
CCCCCCCCn1sccc1=O	11.9 µM
O=C(/C=C/c1ccccn1)c1cc(Br)ccc1O	8.96 µM
CC(C)(C)C(=O)NC(=S)NNC(=O)c1sc2ccccc2c1Cl	12.3 µM
O=C1NC(=O)N(Cc2ccc(F)cc2)C(=O)/C1=C/c1cccs1	4.65 µM
Cc1ccc(NN2C(=O)C=C(c3ccc(Cl)cc3)C2=O)cc1	1.28 µM
CCOC(=O)COc1ccc2ccccc2c1/C=C/[N+](=O)[O-]	5.36 µM
Cc1ccc(NC(=O)c2cc(N3C(=O)C=CC3=O)ccc2Cl)cc1C	7.49 µM
O=C(Nc1ccccc1)c1nnsc1S(=O)(=O)c1ccc(Cl)cc1	2.5 µM
CN1CCN(C(=O)c2cc(COc3c(F)cccc3F)on2)CC1c1ccccc1 (stereo not drawn)	8.03 µM
COc1ccc([N+](=O)[O-])c(S(=O)(=O)c2ccc(Cl)cc2)n1	13.1 µM
COc1ccc(N/N=C(\C#N)C(N)=O)cc1	2.96 µM
COc1cccc2sc(Nc3nc(-c4ccccn4)cs3)nc12	3.82 µM
O=c1cc(CSc2ccc(Cl)cc2)nc(-c2ccccn2)[nH]1	12.9 µM
CC1=NNC(=O)/C1=C\c1cn(-c2ccccc2)nc1-c1ccccc1	11.4 µM
O=C1NC(=O)C(=Cc2ccc(-c3ccc(Cl)cc3)o2)C(=O)N1	6.81 µM

SMILES	EC50
O=C(CSC1=NS(=O)(=O)c2ccccc21)Nc1ccccc1	5.5 µM
Cc1ccc(/C=C2/C(=O)ON=C2c2ccccc2)o1	11.9 µM
COc1ccc(N2C(=O)/C(=C/c3cccs3)C(=O)NC2=S)cc1	7.77 µM
Cc1ccc(S(=O)(=O)c2ccc([N+](=O)[O-])cn2)cc1	12.9 µM
CC1(C)C[C@H]2C=C(C=O)[C@]3(C=O)C[C@]3(C)[C@H]2C1	3.62 µM
O=C1NC(=O)N(Cc2ccco2)C(=O)/C1=C/c1ccc(-c2cccc([N+](=O)[O-])c2)o1	11.2 µM
ClC(Cl)(c1nnnn1-c1ccccc1)c1nnnn1-c1ccccc1	4.62 µM
O=C(/C=C/c1cccc(Cl)c1)c1nc2ccccc2[nH]1	4.06 µM
Cc1ccc(NC(=O)c2cc(N3C(=O)C=CC3=O)ccc2N2CCOCC2)cc1Cl	4.02 µM
CCOC(=O)c1c(C)oc2c1c(C(c1cccnc1)N1CCOCC1)c(O)c1ccccc12 (stereo not drawn)	13.7 µM
O=C(C#Cc1ccccc1)c1ccco1	25.6 µM
C/C(=N\NC(=O)c1cccc(Br)c1)c1ccccn1	20.8 µM
O=C1C=CC(=O)N1c1ccc(N2CCCCC2)cc1	5.05 µM
O=C1c2sc3nc4ccccc4n3c2C(=O)N1c1ccccc1Cl	19 µM
O=C(Nc1nc(-c2ccccn2)cs1)c1cc2ccccc2o1	11.7 µM
N/C(Cc1ccc(Cl)cc1)=N\OC(=O)c1ccccc1	8.02 µM
C[C@H]1C[C@@H](C)C(=O)[C@@H]([C@H](O)CC2CC(=O)NC(=O)C2)C1	0.57 µM
O=[N+]([O-])c1cc(Cl)cc(/C=N\Nc2ccccn2)c1O	8.02 µM
C[C@@H]1C[C@@H]([C@H](O)CC2CC(=O)NC(=O)C2)C(=O)[C@@H](C)C1	0.644 µM
O=[N+]([O-])c1cc(S(=O)(=O)C(F)(F)F)ccc1Sc1nc2ccccc2s1	14.4 µM
CC(C)(C)C(=O)C(Cl)C(=O)Nc1ccccc1 (stereo not drawn)	11.2 µM
CCc1nc2ccccc2c(=O)n1NC(=O)c1c(O)c2ccccc2n(CC)c1=O	7.44 µM

SMILES	EC50
CCc1ccc2c(c1)/C(=C/C(=O)c1cccs1)C(=O)N2	4.42 µM
CC(C)(C)n1nc(-c2ccc(F)cc2)c2c(N)ncnc21	0.98 µM
CCOC(=O)c1c(C)oc2c1c(C(c1ccncc1)N1CCOCC1)c(O)c1ccccc12 (stereo not drawn)	11.8 µM
CC(=O)Nc1ncnc2c1c(-c1ccc(Cl)cc1)nn2C(C)(C)C	6.07 µM
Cc1ccc(C(=O)O)cc1N=Cc1cc(Br)cc(Br)c1O	11.8 µM
O=C(Nc1ccc(Cl)cc1)ON=C1CCCC1	10.8 µM
O=C1C2C3C=CC(CO)(O3)C2C(=O)N1c1ccc(-c2ccccc2)cc1 (stereo not drawn)	10.2 µM
O=C1C=C(c2ccccc2)C(=O)N1Nc1ccccc1	3.91 µM
CCn1c(=O)c(C(=O)Nc2nc3ccccc3[nH]2)c(O)c2ccccc21	3.3 µM
CC(=O)SC(C[N+](=O)[O-])c1cn(C(C)=O)c2ccccc12 (stereo not drawn)	12.4 µM
O=C1C=CC(=O)N1c1ccc(O)cc1	12.6 µM
Cc1ccc2nc(Cl)c3nnnn3c2c1	5.33 µM
COc1ccc2c(c1)c1nnc(SC)nc1n2C	0.681 µM
O=C(OCC(=O)N1CCN(C(=O)c2ccco2)CC1)c1cc(-c2ccc(F)cc2)nc2ccccc12	5.05 µM
COc1cccc2cc(-c3nc4ccccc4o3)c(=O)oc12	1.11 µM
CC(Oc1ccc(Br)cc1)C(=O)Nc1nc(-c2ccccn2)cs1 (stereo not drawn)	20.5 µM
C#CCOCCOCCOCCNc1nc(N2CCN(C(=O)CCCCCCCCCCNC(=O)[C@H](CCCCN)n3cc(CCO)nn3)CC2)nc(N2CCN(C(=O)CCCCCCCCCCNC(=O)[C@H](CCCCN)n3cc(C[C@@H](C)CC)nn3)CC2)n1	10.1 µM
CCCCS(=O)(=O)/C=C\C=C/S(=O)(=O)CCCC	12.5 µM
Nc1ccc(Br)c2c1C(=O)c1ccccc1C2=O	3.16 µM
CCOc1ccc(N2C(=O)/C(=C\c3cccs3)C(=O)NC2=S)cc1	5.66 µM
COc1ccc2c(c1)S/C(=C\C(=O)c1ccncc1)N2C	3.97 µM
